Molecular target: CsTMR (triphenylmethane reductase) (Citrobacter sp. MY-5, UniProt Q2TNI4)
Experiment: decolorization in bienzyme fed-batch system; OD616 assay
Assay type: biochemical
Conditions: glucose 200 mM, NAD 1 mM, malachite green 3 µM, BzGDH for NADH regeneration, 25 °C; OD616 assay: 200 µM NADH, 20 µM malachite green, pH 7.0

CsTMR (triphenylmethane reductase), sequence (Q2TNI4 entry or part of it): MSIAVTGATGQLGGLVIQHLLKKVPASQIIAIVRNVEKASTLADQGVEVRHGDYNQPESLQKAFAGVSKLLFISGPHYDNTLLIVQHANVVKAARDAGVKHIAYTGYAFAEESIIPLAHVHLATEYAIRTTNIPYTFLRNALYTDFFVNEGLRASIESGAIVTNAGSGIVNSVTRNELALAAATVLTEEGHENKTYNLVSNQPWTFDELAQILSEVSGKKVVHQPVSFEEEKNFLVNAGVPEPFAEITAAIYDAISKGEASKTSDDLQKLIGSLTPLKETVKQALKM

CN(C)c1ccc(C(=C2C=CC(=[N+](C)C)C=C2)c2ccccc2)cc1 [malachite green]
decolorization in bienzyme fed-batch system; OD616 assay: The activity of CsTMR was assayed by monitoring the OD616 of malachite green

From publication PMC6928599, “Construction of a Robust Cofactor Self-Sufficient Bienzyme Biocatalytic System for Dye Decolorization and its Mathematical Modeling” (International Journal of Molecular Sciences, 2019)
